# Measured values reported in PubChem BioAssay AID1671212.
# pIC50: −log10 of the molar value.
# Target: Casein kinase I isoform gamma-3 (Homo sapiens) (UniProt Q9Y6M4)
# Assay: PubChem AID 1671212
# Conditions: Z'-LYTE FRET peptide phosphorylation, recombinant CSNK1G3
# Sequence of Casein kinase I isoform gamma-3 (Homo sapiens) (Q9Y6M4 whole entry, looked up, canonical isoform): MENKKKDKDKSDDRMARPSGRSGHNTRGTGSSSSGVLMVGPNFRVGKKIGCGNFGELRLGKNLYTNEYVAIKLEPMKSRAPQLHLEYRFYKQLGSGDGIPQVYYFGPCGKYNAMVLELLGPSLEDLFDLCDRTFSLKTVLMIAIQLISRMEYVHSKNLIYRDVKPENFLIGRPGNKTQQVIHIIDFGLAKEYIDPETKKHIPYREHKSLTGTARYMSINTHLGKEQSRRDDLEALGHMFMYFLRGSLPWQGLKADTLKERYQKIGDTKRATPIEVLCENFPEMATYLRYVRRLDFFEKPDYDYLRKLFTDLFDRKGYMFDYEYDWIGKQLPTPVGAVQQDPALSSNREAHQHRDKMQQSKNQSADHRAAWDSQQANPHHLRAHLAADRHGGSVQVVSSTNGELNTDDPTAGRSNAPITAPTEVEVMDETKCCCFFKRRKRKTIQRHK
smiles,measurement,value
Brc1c(Br)c(Br)c2n[nH]nc2c1Br,pIC50,4.16
